Data from ChEMBL document CHEMBL5584347, “Development of Nitric Oxide Releasing Oxoisoaporphines with Antidepressant Activities by Simultaneously Regulating MAO-A and SERT” (J Med Chem, 2024).
Active and inactive are the calls of the source. The calls are words filed in the database; no cut-off is given here.

Key:
Mus musculus [1] = test: Antidepressant activity in chronic unpredictable mild stress induced depressive C57 mouse model assessed as reduction in neuronal cell damage in hippocampus at 5 to 10 mg/kg administered continuously for 2 weeks post 5 weeks of chronic unpredictable mild stress by H and E staining based analysis; format: functional, organism-based; conditions: dose 5-10 mg/kg
[2] = Toxicity in C57 mouse assessed as necrosis in spleen at 5 to 10 mg/kg administered continuously for 2 weeks by H and E staining based analysis; format: organism-based; conditions: in vivo, 336 h, dose 5-10 mg/kg
[3] = Toxicity in C57 mouse assessed as effect on kidney structure at 5 to 10 mg/kg administered continuously for 2 weeks by H and E staining based analysis; format: organism-based; conditions: in vivo, 336 h, dose 5-10 mg/kg
[4] = Cytotoxicity against human SH-SY5Y cells incubated for 24 hrs by MTT assay; format: toxicity, cell-based
[5] = Toxicity in zebrafish embryo assessed as morphological changes at 0.1 to 10 uM administered with compound starting from 6 hours fertilization and measured at 48 to 120 hours post fertilization; set-up: species or system Danio rerio; conditions: in vivo, dose lower 0.1 µM, time lower 42 hrs, dose upper 10 µM, time upper 114 hrs
[6] = Toxicity in C57 mouse assessed as effect on kidney pathology at 5 to 10 mg/kg administered continuously for 2 weeks by H and E staining based analysis; format: organism-based; conditions: in vivo, 336 h, dose 5-10 mg/kg
Mus musculus [7] = test: Antidepressant activity in chronic unpredictable mild stress induced depressive C57 mouse model assessed as reduction in resting time at 5 to 10 mg/kg administered continuously for 2 weeks post 5 weeks of chronic unpredictable mild stress by tail suspension test; format: functional, organism-based; conditions: dose 5-10 mg/kg
Mus musculus [8] = test: Antidepressant activity in chronic unpredictable mild stress induced depressive C57 mouse model assessed as increase in nitric oxide content in brain at 5 to 10 mg/kg administered continuously for 2 weeks post 5 weeks of chronic unpredictable mild stress by absorbance based analysis; format: functional, organism-based; conditions: dose 5-10 mg/kg
[9] = Toxicity in C57 mouse assessed as effect on spleen morphology at 5 to 10 mg/kg administered continuously for 2 weeks by H and E staining based analysis; format: organism-based; conditions: in vivo, 336 h, dose 5-10 mg/kg
Mus musculus [10] = test: Antidepressant activity in chronic unpredictable mild stress induced depressive C57 mouse model assessed as increase in body weight at 5 to 10 mg/kg administered continuously for 2 weeks post 5 weeks of chronic unpredictable mild stress; format: functional, organism-based; conditions: dose 5-10 mg/kg
[11] = Toxicity in C57 mouse assessed as effect on lung structure at 5 to 10 mg/kg administered continuously for 2 weeks by H and E staining based analysis; format: organism-based; conditions: in vivo, 336 h, dose 5-10 mg/kg
[12] = Toxicity in C57 mouse assessed as effect on lung size at 5 to 10 mg/kg administered continuously for 2 weeks by H and E staining based analysis; format: organism-based; conditions: in vivo, 336 h, dose 5-10 mg/kg
Mus musculus [13] = test: Antidepressant activity in chronic unpredictable mild stress induced depressive C57 mouse model assessed as increase in movement at 5 to 10 mg/kg administered continuously for 2 weeks post 5 weeks of chronic unpredictable mild stress by open field test; format: functional, organism-based; conditions: dose 5-10 mg/kg
[14] = Cytotoxicity against rat PC-12 cells incubated for 24 hrs by MTT assay; format: toxicity, cell-based
Mus musculus [15] = test: Antidepressant activity in chronic unpredictable mild stress induced depressive C57 mouse model assessed as reduction in resting time at 5 to 10 mg/kg administered continuously for 2 weeks post 5 weeks of chronic unpredictable mild stress by forced swimming test; format: functional, organism-based; conditions: dose 5-10 mg/kg
[16] = Toxicity in C57 mouse assessed as necrosis in kidney at 5 to 10 mg/kg administered continuously for 2 weeks by H and E staining based analysis; format: organism-based; conditions: in vivo, 336 h, dose 5-10 mg/kg
[17] = Cytotoxicity against human L02 cells incubated for 24 hrs by MTT assay; format: toxicity, cell-based
Mus musculus [18] = test: Antidepressant activity in chronic unpredictable mild stress induced depressive C57 mouse model assessed as reduction in MAO-A activity in brain at 5 to 10 mg/kg administered continuously for 2 weeks post 5 weeks of chronic unpredictable mild stress by colorimetric analysis; format: functional, organism-based; conditions: dose 5-10 mg/kg

Question: Which Activity (Mus musculus [1]) does the source give for `O=C1c2ccccc2-c2nccc3cc(OCCCO[N+](=O)[O-])cc1c23` here?
Answer: The Activity was “Active”.

Question: And the Activity [2]?
Answer: The Activity was “Non-Toxic”.

Question: And the Activity [3]?
Answer: Its Activity is “Non-Toxic”.

Question: What about the IC50 at 24 h [4] of the same compound?
Answer: Its IC50 at 24 h is over 100 µM.

Question: And the Activity [5]?
Answer: Its Activity is “Non-Toxic”.

Question: What about the Activity [6] of the same compound?
Answer: The Activity was “Non-Toxic”.

Question: What about the Activity (Mus musculus [7]) of the same compound?
Answer: Its Activity is “Active”.

Question: What about the Activity (Mus musculus [8]) of the same compound?
Answer: The Activity was “Active”.

Question: What about the Activity [9] of the same compound?
Answer: The Activity was “Non-Toxic”.

Question: What about the Activity (Mus musculus [10]) of the same compound?
Answer: Its Activity is “Active”.

Question: And the Activity [11]?
Answer: The Activity was “Non-Toxic”.

Question: What about the Activity [12] of the same compound?
Answer: Its Activity is “Non-Toxic”.

Question: What about the Activity (Mus musculus [13]) of the same compound?
Answer: Its Activity is “Active”.

Question: What about the IC50 at 24 h [14] of the same compound?
Answer: The IC50 at 24 h was over 10 µM.

Question: What about the Activity (Mus musculus [15]) of the same compound?
Answer: Its Activity is “Active”.

Question: And the Activity [16]?
Answer: The Activity was “Non-Toxic”.

Question: What about the IC50 at 24 h [17] of the same compound?
Answer: The IC50 at 24 h was over 100 µM.

Question: What about the Activity (Mus musculus [18]) of the same compound?
Answer: Its Activity is “Active”.
